Test results from ChEMBL document CHEMBL1141890, “DNA topoisomerase I inhibitors from Rinorea anguifera” (Bioorg Med Chem Lett, 2005).

What was measured:
[1] = molecular target: T1, DNA topoisomerase 1 (Homo sapiens) (UniProt P11387); conditions: 0.25 uM
T1 sequence (whole entry): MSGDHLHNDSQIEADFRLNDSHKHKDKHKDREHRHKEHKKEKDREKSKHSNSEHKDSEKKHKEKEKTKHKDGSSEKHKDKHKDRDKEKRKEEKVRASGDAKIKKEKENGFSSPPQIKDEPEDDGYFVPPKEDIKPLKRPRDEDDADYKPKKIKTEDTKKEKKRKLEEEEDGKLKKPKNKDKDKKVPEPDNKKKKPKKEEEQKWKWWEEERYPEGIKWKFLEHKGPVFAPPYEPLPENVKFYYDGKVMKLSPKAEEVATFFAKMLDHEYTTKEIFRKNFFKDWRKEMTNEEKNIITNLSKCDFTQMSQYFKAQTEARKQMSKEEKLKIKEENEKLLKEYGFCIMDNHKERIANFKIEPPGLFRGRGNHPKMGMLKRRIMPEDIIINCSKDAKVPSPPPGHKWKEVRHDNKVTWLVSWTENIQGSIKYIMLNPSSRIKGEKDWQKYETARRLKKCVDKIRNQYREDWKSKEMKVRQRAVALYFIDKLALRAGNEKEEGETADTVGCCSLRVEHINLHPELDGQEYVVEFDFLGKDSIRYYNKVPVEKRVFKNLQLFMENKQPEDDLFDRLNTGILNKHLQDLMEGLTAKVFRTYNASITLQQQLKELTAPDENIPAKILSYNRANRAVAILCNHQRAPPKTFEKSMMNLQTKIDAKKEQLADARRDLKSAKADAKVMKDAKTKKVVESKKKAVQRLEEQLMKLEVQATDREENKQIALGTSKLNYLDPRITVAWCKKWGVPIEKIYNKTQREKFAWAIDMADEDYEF
Description: Effect on DNA breakge as nicked FormII at 0.25 uM with topoisomerase I

[2] = molecular target: T1, DNA topoisomerase 1 (Homo sapiens); conditions: 2 uM
Description: Effect on DNA breakge as nicked FormII at 2 uM without topoisomerase I

[3] = molecular target: T1, DNA topoisomerase 1 (Homo sapiens); conditions: 2 uM; remark: listed apart in the source
Description: Effect on stabilization of human topoisomerase I-DNA covalent complex at 2 uM

[4] = molecular target: T1, DNA topoisomerase 1 (Homo sapiens); assay: Effect on DNA breakge as nicked FormII at 1 uM with topoisomerase I; assay type: functional
[5] = molecular target: T1, DNA topoisomerase 1 (Homo sapiens); assay: Effect on DNA breakge as nicked FormII at 100 uM without topoisomerase I; assay type: functional
[6] = molecular target: T1, DNA topoisomerase 1 (Homo sapiens); assay: Effect on stabilization of human topoisomerase I-DNA covalent complex at 100 uM

`CC[C@@]1(O)C(=O)OCc2c1cc1n(c2=O)Cc2cc3ccccc3nc2-1` gave an Effect [1] of 84%, an Effect [2] of 96% and an Effect [3] of 2%.
`CC1O[C@@H](OC[C@H]2O[C@@H](Oc3c(-c4ccc(O)cc4)oc4cc(O)cc(O)c4c3=O)C(O[C@@H]3O[C@H](C)[C@H](O)C(O)C3O)C(O)[C@H]2O)C(O)[C@@H](O)[C@H]1O` (some centres undefined) showed an Effect [4] of 31%, an Effect [5] of 75% and an Effect [6] of 10%.
Work on `COc1cc([C@H]2OC[C@H]3[C@@H]2CO[C@@H]3c2cc(OC)c(O)c(OC)c2)cc(OC)c1O` yielded an Effect [4] of 8%, an Effect [5] of 15% and an Effect [6] of 2%.
